Numbers after ± are expanded uncertainties.
Legend:
[1] = Crystal 2; DTA
[2] = Molar enthalpy of transition or fusion; details: Crystal 2; DSC

[Cl][Pt][Cl] [platinous chloride]
Triple point temperature [1]: 660 ± 10 K | Molar enthalpy of transition or fusion [2]: 0.0399 ± 0.0227 kcal/mol

Source: the NIST ThermoML archive (doi:10.1016/j.tca.2008.10.020)
